Measured values published in patent US20210061929A1, “ACTIVE-ENERGY-RAY-CURABLE COMPOSITION, ACTIVE-ENERGY-RAY-CURABLE INK, COMPOSITION STORED CONTAINER, TWO-DIMENSIONAL OR THREE-DIMENSIONAL IMAGE FORMING METHOD AND APPARATUS, CURED PRODUCT, AND DECORATED PRODUCT” (priority 2019, published 2021).

Tests used:
[1] = Skin sensitization test by local lymph node assay (LLNA), SI value of the materials; assay type: in vivo; settings: for SI (skin sensitization SI value): material as such, local lymph node assay (LLNA) method
Experimental: The amine value of the dispersant polymer, a skin sensitization SI value indicating a skin sensitizing potential, and the colony count by Ames test indicating carcinogenicity were obtained in the manners described below.
The SI value was measured by a skin sensitization test according to a local lymph node assay (LLNA) method.
Oral toxicity was tested according to OECD test guideline TG423. […] Skin sensitizing potential was tested according to OECD test guideline TG442B.

[2] = assay type: cell-based; settings: OECD test guideline TG471 (±S9 mix)
Experimental: (§1) As a safety test, AMES test was performed according to OECD test guideline TG471 (±S9 mix), and the result was negative. Oral toxicity was tested according to OECD test guideline TG423. […] Skin stimulation was tested according to OECD test guideline TG404, and the result was PII=0.5. Skin sensitizing potential was tested according to OECD test guideline TG442B.

[3] = Oral toxicity according to OECD test guideline TG423; assay type: in vivo
Experimental: as §1

[4] = assay type: in vivo; settings: OECD test guideline TG404
Experimental: as §1

Compound	SI (skin sensitization SI value) [1]	further results
C=CC(=O)N(C)CC(=O)OC [Example A1-1, N-acryloyl-N-methylglycinemethyl ester]	(see Synthesis example 1) SI = 1.00	SI value (skin sensitizing potential) ([1]; OECD test guideline TG442B): 1.00; Influence on the health of human bodies (conclusion of the safety tests) ([1]; in vivo, po): significantly uninfluential on the health of human bodies; AMES test result [2]: negative; LD50 ([3]; in vivo, po, 2000 mg/kg): ≥ 2000 mg/kg; Fatal cases (oral toxicity) ([3]; six cases): none of six cases was a fatal case; PII (skin stimulation) [4]: 0.5
C=CC(=O)N(C)CC(=O)OCC [Example A1-2, N-acryloyl-N-methylglycineethyl ester]	(see Synthesis example 2) SI = 1.02	–
C=CC(=O)N(C)C(C)C(=O)OC (stereo not shown) [Example A1-3, N-acryloyl-N-methylalaninemethyl ester]	(see Synthesis example 3) SI = 1.12	–
C=C(C)C(=O)OCCOCCOC(=O)C(=C)C [Example A2-1]	Shin- Nakamura Chemical Co., Ltd. “2G” SI = 1.05 Ltd.	–
C=C(C)C(=O)OCC(CC)(COC(=O)C(=C)C)COC(=O)C(=C)C [Example A2-3]	Shin- Nakamura Chemical Co., Ltd. “TMPT” SI = 1.03	–
C=C(C)C(=O)OCC(COC(=O)C(=C)C)OC(C)=O [Example A2-6, 2-acetyl-1,3-glycerol dimethacrylate]	(see Synthesis example 5) SI = 1.40	–
C=C(C)C(=O)OCCO [Example A3-1, 2-hydroxyethyl methacrylate]	Tokyo Chemical Industry Co., Ltd. “2-hydroxyethyl methacrylate” SI = 1.26	–
C=CC(=O)OCC(CC)(COC(=O)C=C)COC(=O)C=C [Example A4-1]	Toagosei Co., Ltd. “M-3547” SI = 3.42	–
Isobornyl acrylate [Example A3-2]	Osaka Organic Chemical Industry Ltd. “Isobomyl acrylate” SI = 8.30	SI (skin sensitization SI value) ([1]; listed as IBXA): 8.30
